{"source": "patent US20200253211A1", "about": "“PHOTODYNAMIC INHIBITION OF MICROBIAL PATHOGENS IN PLANTS” (SUNCOR ENERGY INC, priority 2017, published 2020)", "format_in_all_cases": "cell-based", "key": {"[1]": {"tested_on": "Botrytis cinerea mycelia", "test": "Photodynamic inhibition of Botrytis cinerea mycelia, percentage of dead samples after 7 days on agar", "conditions": "Table 4; EDTA-Ca 5 mM alone; with light", "experimental": "(§1) In the experiments, Botrytis cinerea mycelia were grown in liquid medium for 48 hours. Small spheres of the mycelia (average diameter 2 mm) were incubated for 100 minutes with Mg-Chlorophyllin with or without 5 mM Disodium-EDTA. Samples were illuminated with 395 nm (fluence 106.6 J cm^−2) for 120 minutes and the radial growth of mycelial patches after 7 days on agar medium was measured. A sample was considered dead, if there was no growth observable after 7 days on agar plates.\nas §1, with “mM EDTA (calcium or disodium).” for “mM Disodium-EDTA.”, “120 min” for “120 minutes”\nas §1, with “without Baypure DS100” for “without 5 mM Disodium-EDTA.”, “120 min” for “120 minutes”\nThe protocol for the PDI of B. cinerea was as follows (for experiments 3 and 4 described above): • Grow B. cinerea on malt-peptone-agar for some days. • Transfer spores of B. cinerea to liquid malt-peptone medium. • Incubate for 2-3 days at 26° C. under constant agitation. • Transfer the grown mycelia (spheres of mycelia, approximately 2 mm diameter) to 24 well plates. • Add 500 μl of the PS to the well. • Incubate under agitation for 100 minutes in the dark. • Illuminate under agitation for 120 minutes. • Transfer the treated mycelia to malt-peptone-agar plates and incubate for one week at room temperature. • Evaluate by counting of dead samples."}, "[2]": {"tested_on": "Sclerotinia homoeocarpa", "test": "Radial growth of dollar spot fungus on amended Potato Dextrose Agar, dark vs light", "conditions": "no curcumin"}, "[3]": {"tested_on": "Alternaria solani mycelia", "test": "Photodynamic inhibition of Alternaria solani mycelia, percentage of dead samples after 7 days on agar", "conditions": "Table 5", "experimental": "(§2) In the experiments, Alternaria solani mycelia were grown in liquid medium for 24 hours. Small spheres of the mycelia (average diameter 2 mm) were incubated for 100 minutes with 100 μM of Mg-Chlorophyllin with 0 to 5 mM of Disodium-EDTA. Samples were illuminated with 395 nm (fluence 106.6 J cm^−2) for 120 mins and the radial growth of mycelial patches after 7 days on agar medium was measured. A sample was considered dead, if there was no growth observable after 7 days on agar plates.\nas §2, with “Chlorin E6” for “100 μM of Mg-Chlorophyllin”, “or without” for “0 to”, “disodium-EDTA.” for “Disodium-EDTA.”\nThe protocol for the PDI of A. solani was as follows (for Experiment 2 and 5): • Grow A. solani on tomato-agar for some days. • Transfer parts of the growing mycelium form the edge of the A. solani (no conidia) to liquid tomato medium. • Incubate overnight at 26° C. under constant agitation. • Transfer the grown mycelia (spheres of mycelia, approximately 2 mm in diameter) to 24 well plates. • Add 500 microlitres of the PS to the well (PBS for the Co and light only controls). • Incubate under agitation for 100 minutes. • Illuminate under agitation for 120 minutes. • Transfer the treated mycelia to tomato-agar plates and incubate for one week at room temperature. • Evaluate by counting of dead samples."}, "[4]": {"tested_on": "Sclerotinia homoeocarpa", "test": "Radial growth of dollar spot fungus after treatment of plugs in PBS (24 well plates), dark vs light", "experimental": "In this example, control of dollar spot fungus (Sclerotinia homoeocarpa) with chlorins combined with a chelating agent was assessed. Treatments were prepared in Phosphate Buffered Saline (PBS) in 24 well plates (in duplicates for light vs. dark incubation) at desired concentrations. Then, a 5 mm diameter plug of a Sclerotinia homoeocarpa isolate (3 isolates total tested) was inoculated into the PBS and incubated at 21° C. in the dark for 2 hours. After 2 hours, one of the 24 well plates (with isolates in triplicate) is left in the dark and one 24 well plate is placed under illumination for 1 hour (all at 21° C.). Following illumination, fungal plugs are removed from PBS, blotted dry on sterile filter paper and transferred to non-amended Potato Dextrose Agar (PDA). Radial growth of the fungus is monitored daily until the growth of S. homoeocarpa reaches the edge of the Petri-dish. Illumination is provided by LED lights emitting about 1000 μmol/m^2/s photosynthetically active radiation (PAR). In this example, control of dollar spot fungus (Sclerotinia homoeocarpa) with Zinc Protoporphyrin IX (Zn-PPIX) combined with EDTA was assessed. Treatments were prepared in Phosphate Buffered Saline (PBS) in 24 well plates (in duplicates for light vs. dark incubation) at desired concentrations. Then, a 5 mm diameter plug of a Sclerotinia homoeocarpa isolate (3 isolates total tested) was inoculated into the PBS and incubated at 21° C. in the dark for 2 hours. After 2 hours, one of the 24 well plates (with isolates in triplicate) is left in the dark and one 24 well plate is placed under illumination for 1 hour (all at 21° C.). Following illumination, fungal plugs are removed from PBS, blotted dry on sterile filter paper and transferred to non-amended Potato Dextrose Agar (PDA). Radial growth of the fungus is monitored daily until the growth of S. homoeocarpa reaches the edge of the Petri-dish. Illumination is provided by LED lights emitting about 1000 μmol/m^2/s photosynthetically active radiation (PAR). In this example, control of dollar spot fungus (Sclerotinia homoeocarpa) with bacteriochlorin combined with EDTA was assessed. Treatments were prepared in Phosphate Buffered Saline (PBS) in 24 well plates (in duplicates for light vs. dark incubation) at desired concentrations. Then, a 5 mm diameter plug of a Sclerotinia homoeocarpa isolate (3 isolates total tested) was inoculated into the PBS and incubated at 21° C. in the dark for 2 hours. After 2 hours, one of the 24 well plates (with isolates in triplicate) is left in the dark and one 24 well plate is placed under illumination for 1 hour (all at 21° C.). Following illumination, fungal plugs are removed from PBS, blotted dry on sterile filter paper and transferred to non-amended Potato Dextrose Agar (PDA). Radial growth of the fungus is monitored daily until the growth of S. homoeocarpa reaches the edge of the Petri-dish. Illumination is provided by LED lights emitting about 1000 μmol/m^2/s photosynthetically active radiation (PAR). In this example, control of dollar spot fungus (Sclerotinia homoeocarpa) with Aluminum chlorin e6 combined with EDTA was assessed. Treatments were prepared in Phosphate Buffered Saline (PBS) in 24 well plates (in duplicates for light vs. dark incubation) at desired concentrations. Then, a 5 mm diameter plug of a Sclerotinia homoeocarpa isolate (3 isolates total tested) was inoculated into the PBS and incubated at 21° C. in the dark for 2 hours. After 2 hours, one of the 24 well plates (with isolates in triplicate) is left in the dark and one 24 well plate is placed under illumination for 1 hour (all at 21° C.). Following illumination, fungal plugs are removed from PBS, blotted dry on sterile filter paper and transferred to non-amended Potato Dextrose Agar (PDA). Radial growth of the fungus is monitored daily until the growth of S. homoeocarpa reaches the edge of the Petri-dish. Illumination is provided by LED lights emitting about 1000 μmol/m^2/s photosynthetically active radiation (PAR). […]"}, "[5]": {"conditions": "Table 9B, light, Ca-EDTA 100 μm"}}, "data": [{"compound": "O=C([O-])CN(CCN(CC(=O)[O-])CC(=O)[O-])CC(=O)[O-].[Ca+2].[Na+].[Na+]", "note": "[EDTA-Ca, calcium disodium EDTA]", "values": [{"measurement": "dead %", "setting": "[1]", "value": 0, "unit": "%"}, {"measurement": "% Inhibition", "setting": "[2]; Table 9A, dark, Ca-EDTA 100 μM", "value": 80.8, "unit": "%"}, {"measurement": "Mean Radial Growth", "setting": "[2]; Table 9A, dark, Ca-EDTA 100 μM", "value": 2.8, "unit": "mm"}, {"measurement": "% Inhibition", "setting": "[2]; [5]", "value": 76.5, "unit": "%"}, {"measurement": "Mean Radial Growth", "setting": "[2]; [5]", "value": 3.2, "unit": "mm"}]}, {"compound": "C=Cc1c(C)c2cc3nc(c(CC(=O)O)c4[nH]c(cc5nc(cc1[nH]2)C(C)=C5CC)c(C)c4C(=O)O)[C@@H](CCC(=O)O)[C@@H]3C", "note": "[Chlorin E6]", "values": [{"measurement": "dead %", "setting": "[3]; light, 1 μM Chlorin E6", "value": 0.0, "unit": "%"}, {"measurement": "dead %", "setting": "[3]; light, 10 μM Chlorin E6", "value": 8.3, "unit": "%"}, {"measurement": "dead %", "setting": "[3]; light, 100 μM Chlorin E6", "value": 0, "unit": "%"}, {"measurement": "dead %", "setting": "[3]; no light, 100 μM Chlorin E6", "value": 0.0, "unit": "%"}, {"measurement": "% Inhibition", "setting": "[4]; Table 18A, dark, rate 10 μM", "value": "−1.49", "unit": "%"}, {"measurement": "Mean Radial Growth", "setting": "[4]; Table 18A, dark, rate 10 μM", "value": 11.33, "unit": "mm"}, {"measurement": "% Inhibition", "setting": "[4]; Table 18A, dark, rate 100 μM", "value": 3.48, "unit": "%"}, {"measurement": "Mean Radial Growth", "setting": "[4]; Table 18A, dark, rate 100 μM", "value": 10.78, "unit": "mm"}, {"measurement": "% Inhibition", "setting": "[4]; Table 18B, light, rate 10 μM", "value": 24.12, "unit": "%"}, {"measurement": "Mean Radial Growth", "setting": "[4]; Table 18B, light, rate 10 μM", "value": 8.39, "unit": "mm"}, {"measurement": "% Inhibition", "setting": "[4]; Table 18B, light, rate 100 μM", "value": 11.06, "unit": "%"}, {"measurement": "Mean Radial Growth", "setting": "[4]; Table 18B, light, rate 100 μM", "value": 9.83, "unit": "mm"}]}]}
